# From patent US20230341377A1, “DISCONNECTION AGENTS” (DC Europa Limited, priority 2020, published 2023)
# Legend:
# [1] = test system: patient-derived glioblastoma cells from the Glio10535 model; experiment: Example 5: subcutaneous Glio10535 glioblastoma, TPPB with temozolomide, relative tumour volume; format: in vivo, NMRI nude mice
# Experimental: NMRI nude mice were subcutaneously implanted with patient-derived glioblastoma cells from the Glio10535 model (Orthmann et al.) on day 0.
# Animals were stratified into the treatment groups on day 6 after tumour implantation to achieve similar average tumour volumes per group. Minimal tumour sizes were 44 mm^3 and maximal tumour sizes were 247 mm^3. Vehicle animals (n=9) were treated with a mix of DMSO, Tween20 and PBS. Each 5 animals were orally dosed with temozolomide chemotherapy at 25 mg/kg (TMZ 25) and at 50 mg/kg (TMZ 50) on consecutive days per week. Each week represents one chemotherapy cycle of 5 treatment days and 2 off-treatment days. TPPB was dosed intraperitoneally in combination with 25 mg/kg oral temozolomide either continuously at 0.2 mg/kg (n=10) or intermittently (n=10) at 0.1, 0.4, and 0.7 mg/kg starting with the last dose of every TMZ 25 cycle and ending the day before the next treatment cycle. Before the start of chemotherapy, TPPB was titrated to its target dose.
# [2] = target: T1, PKCε (Homo sapiens, UniProt Q02156); design: key: +—activation; ++—strong activation; details: nPKCs, gene PRKCE; cited from earlier work
# T1 sequence (Q02156 1-737): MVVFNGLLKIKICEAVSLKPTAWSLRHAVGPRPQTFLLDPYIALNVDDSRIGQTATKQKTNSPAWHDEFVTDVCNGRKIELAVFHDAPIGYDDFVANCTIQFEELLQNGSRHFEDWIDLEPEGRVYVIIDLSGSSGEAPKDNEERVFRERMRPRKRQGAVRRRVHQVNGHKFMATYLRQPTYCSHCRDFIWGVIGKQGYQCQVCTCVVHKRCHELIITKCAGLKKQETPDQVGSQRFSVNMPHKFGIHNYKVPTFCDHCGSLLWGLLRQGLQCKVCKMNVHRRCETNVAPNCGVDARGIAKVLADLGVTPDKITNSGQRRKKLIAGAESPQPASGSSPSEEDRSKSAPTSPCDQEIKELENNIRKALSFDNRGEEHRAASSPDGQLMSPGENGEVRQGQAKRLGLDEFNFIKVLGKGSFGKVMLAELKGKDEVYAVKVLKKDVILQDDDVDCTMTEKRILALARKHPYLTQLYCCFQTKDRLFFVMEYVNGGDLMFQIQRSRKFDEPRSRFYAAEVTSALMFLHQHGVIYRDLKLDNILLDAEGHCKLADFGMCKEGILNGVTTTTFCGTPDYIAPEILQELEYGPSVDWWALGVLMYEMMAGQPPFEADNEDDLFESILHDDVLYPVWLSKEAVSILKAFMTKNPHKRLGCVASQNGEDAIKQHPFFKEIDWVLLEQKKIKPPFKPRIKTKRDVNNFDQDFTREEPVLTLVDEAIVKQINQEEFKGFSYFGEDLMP
# [3] = test system: Hs578T cells; experiment: SMS assay in Hs578T cells; format: cell-based, human; details: versus vehicle and PMA (5 nM), FIG. 2A, 2B, 2D, 2E
# Excerpt: (§1) The SMS assay was developed to assess the transfer of cell dye (for example the acetoxymethyl [AM]-based Calcein AM), between cancer cells. The SMS assay can be applied to any cell lines forming tumour networks such as tumour microtubes (TM) or tunneling nanotubes (TNT), which enable the transfer of molecules across cells. The SMS assay can be used to assess networking capabilities of any cancer cell lines including HepG2 hepatocellular carcinoma cells, Hs578T cell line for human breast cancer, and U373 cell line for human glioblastoma.
# (§2) The SMS assay is illustrated in FIG. 1. For the SMS assay, two sets of cells are stained with the cell dye of choice and a customary cell tracker dye (for example cell tracker blue) using established staining techniques (steps 1 and 2). Each set of cells are then co-incubated with the compound of interest to assess its capabilities to modulate the cells small molecule sharing characteristics (step 3). Then the two sets of cells are combined on a plate, for example at a ratio of 1:1, and cultured in the presence of the compound of interest (Step 4).
# (§3) Finally, live cells are evaluated for viability and analyzed by flow cytometry for the uptake of cell dye in the […] cells (Step 5). The comparison of cell tracker uptake against positive and negative control enables the assessment of the compound's ability to modulate the tumour networks including those formed by TM and TNTs
# (§4) The SMS assay has been applied to assess the modulation of network sharing capabilities of Protein Kinase C Modulators (PKCm) at various concentrations in the Hs578 cell line for human breast cancer, U373 cell line of human glioblastoma, and HepG2 hepatocellular carcinoma cells. PBS vehicle was used as negative control and the PKCm PHORBOL 12-MYRISTATE 13-ACETATE (PMA) at a concentration of 5 nM was used as the positive control.
# (§5) FIG. 2A and FIG. 2B show the percentage of cell tracker cells that were accepting the cell dye transfer from separately stained donor cells according to the SMS assay of Example. The percentage of acceptor cells detected is shown in comparison to vehicle (upper horizontal line) and PMA at 5-10 nM concentration (lower horizontal line). Active PKCm in the SMS assay (FIG. 2A) show a decrease in acceptor cells relative to vehicle at certain concentration. […] The upper limit of the tested concentrations was determined as the maximal non-cytotoxic dose.
# [4] = test system: human patient-derived S24 glioblastoma cells; experiment: Example 6: orthotopic S24 glioblastoma, TPPB followed by radiotherapy, intravital microscopy; format: in vivo, NMRI mice
# Experimental: Orthotopic brain tumours were induced in NMRI mice using human patient-derived S24 glioblastoma cells exactly as described in Example 4. Once significant tumours were established in vivo (approximately 35 days after implantation), as shown by intravital microscopy exactly as described in Example 4, mice received 4 intraperitoneal injections on day -1, day 6 and day 13 and day 20, with Control mice receiving vehicle only and Treated mice receiving TPPB at 200 μg/kg. All mice then received radiotherapy on days 0, 1 and 2 exactly as described in Example 4, except that the radiation dose was 6 Gy as opposed to 7 Gy on each occasion (18 Gy total radiation dose as opposed to 21 Gy total radiation dose). The impact of treatment on the tumour was then monitored by intravital microscopy at intervals after the initiation of radiotherapy on day 0.
# [5] = target: PKCα (Homo sapiens, UniProt P17252); design: key: +—activation; ++—strong activation; details: cPKCs, gene PRKCA; cited from earlier work
# [6] = test system: Hs578 cell line for human breast cancer, U373 cell line of human glioblastoma, and HepG2 hepatocellular carcinoma cells; experiment: SMS assay (small molecule sharing), cell dye-sharing between cancer cells, cell lines pooled; format: cell-based; details: various doses that are not cytotoxic, in one or more cell lines
# Excerpt: as §1, §2, §3, §4, §5
# [7] = intermittent TPPB 0.7 2× per week i.p. + TMZ 25 mg/kg oral, by 38
# [8] = TPPB 200 μg/kg i.p. followed by radiotherapy, all mice
smiles,measurement,setting,value
"CC(C)[C@H]1C(=O)N[C@H](CO)Cc2cc(NC(=O)/C=C/C=C/c3ccc(C(F)(F)F)cc3)ccc2N1C [TPPB, (2E,4E)-N-[(2S,5S)-1,2,3,4,5,6-Hexahydro-5-(hydroxymethyl)-1-methyl-2-(1-methylethyl)-3-oxo-1,4-benzodiazocin-8-yl]-5-[4-(trifluoromethyl)phenyl]-2,4-pentadienamide]",effect over control,[1]; continuous dosing with TPPB (0.2 mg/kg QD i.p. + TMZ 25),no effect over control
same,anti-tumour effect (relative tumour volume) compared with TMZ 25 monotherapy,[1]; [7],additive to the effect of temozolomide 25 mg/kg monotherapy
same,anti-tumour effect (relative tumour volume) compared with continuous TPPB 0.2 QD + TMZ 25,[1]; [7],superior to continuous treatment with TPPB
same,tumour growth,[1]; intermittent dosing with TPPB (+ TMZ 25),tumour growth inhibition
same,activation of PKCε,[2],+
same,cell dye-sharing in the SMS assay (percentage of acceptor cells),[3],inhibition of cell dye-sharing
same,tumour cell morphology,"[4]; TPPB 200 μg/kg i.p. + radiotherapy, from day 35 after initiation of radiotherapy",marked change in morphology
same,outcome of orthotopic solid brain tumour,"[4]; TPPB 200 μg/kg i.p. day -1, 6, 13, 20, radiotherapy 6 Gy days 0, 1, 2, by day 91",complete cure
same,tumour cells in field of view,"[4]; TPPB 200 μg/kg i.p. day -1, 6, 13, 20, radiotherapy 6 Gy days 0, 1, 2, day 91",no detectable tumour cells
same,behavioural or clinical signs associated with the treatment,[4]; [8],no behavioural or clinical signs
same,tolerability,[4]; [8],well tolerated
same,activation of PKCα,[5],++
same,inhibition of cell dye-sharing in the SMS assay,[6],marked inhibition of cell dye-sharing
